Data reported in PubChem BioAssay AID449764 (Southern Research Specialized Biocontainment Screening …, 2010).

Tested on: Mycobacterium tuberculosis H37Rv growth inhibition, no glycerol
Test: Confirmatory growth inhibition assay, Mycobacterium tuberculosis H37Rv, absence of glycerol (AID 449764);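 also: growth read after 7 days of incubation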
Conditions: for IC90: measured here: IC90 growth inhibition

Row | Structure (SMILES) | IC50 [µM] | IC90 [µM]
1 | COc1ccc(CCNc2nc(N3CCCCC3)nc(N3CCCCC3)n2)cc1OC | 18 | 23.3
2 | COc1ccc(C(C)=O)cc1COC(=O)c1ccc2ccccc2n1 | 60.3 | > 100
3 | CCOC(=O)C(C)Sc1ncnc2c1nnn2-c1ccc(F)cc1 (stereo not given) | 2.61 | 9.68
4 | CC1=NN(C(=O)c2ccc(Br)cc2)C(O)(c2ccccc2)C1 (stereo not given) | 42.3 | 52.6
5 | Cc1ccc(NC(=O)COc2ccc(-n3ccnc3)cc2)cc1Cl | 44.5 | 58.7
6 | O=[N+]([O-])c1c(C(Cl)Cl)nn(-c2ccc(Cl)cc2)c1N1CCCCC1 | 21.2 | 23.3
7 | COC(=O)[C@H](CCSC)NC(=O)N1CCN(c2cccc(C(F)(F)F)c2)CC1 | 29 | 58.8
8 | CC1CCCC(C)N1/N=C/c1c[nH]c2ccc(Br)cc12 (stereo not given) | 22.7 | 29.1
9 | C[CH2][Hg][S]c1ccccc1C(=O)O | 0.52 | 1.26
10 | Cc1ccnc(N2CCC(C(=O)Nc3cccc(C(F)(F)F)c3)CC2)n1 | 46.3 | > 50
11 | CCC(C)(C)c1ccc(OCCCC[n+]2ccc(C)cc2)c(C(C)(C)CC)c1 | 12 | 13.8
12 | Cc1ccc(C(=O)O/N=C\c2ccc(N3CCCCC3)c([N+](=O)[O-])c2)cc1 | 53.4 | > 100
13 | COc1ccc(C[C@H]2CN3C(=NC[C@H]3Cc3ccccc3)N2CCNC(=O)CCC2CCCCC2)cc1 | 22.4 | 24.3
14 | CCOc1ccc(C2c3[nH]c4ccccc4c3C[C@H]3C(=O)N(C4CCN(Cc5ccccc5)CC4)CC(=O)N23)cc1OC (stereo not given in full) | 23.7 | > 100
15 | COc1cccc(NC(=O)C2CCN(Cc3cnn(-c4ccccc4)c3-n3cccc3)CC2)c1 | 54.9 | 90
16 | Oc1cc(NCc2cccnc2)ccc1-c1nc2ccccc2o1 | 31.6 | 61.3
17 | COc1ccccc1C1c2ccc3ccccc3c2Oc2ncn(CCN(C)C)c(=N)c21 (stereo not given) | 25.2 | 28.9
18 | NC(=S)N/N=C/c1ccc(-c2ccccc2)o1 | 44 | 90.7
19 | COC(=O)c1ccc(-n2cnc3ccccc32)nc1 | 17.7 | 39.5
20 | COC(=O)C(CCSC)NC(=O)c1cn(-c2ccc(OC)cc2)c(=O)c2ccccc12 (stereo not given) | 24.3 | > 25
21 | CCOC(=O)C(/C=C(\C#N)C(=O)OCC)=C(/N)N1CCN(c2ccc(Cl)cc2)CC1 | 11.9 | > 25
22 | O=C(O)C1CC=CCC1C(=O)N1CCN(c2nc(-c3ccccc3Cl)c3cc(Br)ccc3n2)CC1 (stereo not given) | 43.2 | 68.8

Row | Structure (SMILES) | IC50 [µM] | IC90 [µM]
23 | COC(=O)CC(=O)N1CCN(c2ccc(Cl)c(Cl)c2)CC1 | 44.4 | 74.8
24 | CN(C)[C@@H]1C(=O)C(C(N)=O)=C(O)[C@@]2(O)C(=O)C3=C(O)c4c(O)cccc4[C@@](C)(O)C3C[C@@H]12 (stereo not given in full) | 9.73 | 27.4
25 | CCC1(c2ccccc2)ON(c2c(Br)cccc2Br)C1=O (stereo not given) | 40.2 | 77.3
26 | CCOC(=O)C1(CCOc2ccccc2)CCN(Cc2cccc(-n3cccn3)c2)CC1 | 28.1 | 34.5
27 | C/C(=N\NC(=O)c1ccc(O)cc1)c1ccc2c(c1)Nc1ccccc1S2 | 50.2 | 95.6
28 | CC(C)CCC[C@@H](C)[C@H]1CC[C@H]2[C@@H]3C(=O)C=C4C[C@@H](O)CC[C@]4(C)[C@H]3CC[C@]12C | 38.5 | 62.9
29 | O=C(Nc1ccccc1)C1=C[C@@H](C2CCCCC2)C[C@@H](OCc2ccc(CO)cc2)O1 | 36 | 47.6
30 | CN(c1ccccc1)S(=O)(=O)c1cccc(C(=O)NCc2ccccc2CN2CCCC2)c1 | 63.2 | 77.9
31 | Cc1onc(-c2c(F)cccc2Cl)c1C(=O)O/N=C(\N)c1ccc([N+](=O)[O-])o1 | 14.4 | 27.6
32 | COc1ccc(N2CCN(C(=O)c3ccc(CNc4c(N5CCOCC5)c(=O)c4=O)cc3)CC2)cc1 | 2.96 | 3.24
33 | Nc1nc(Cl)cc(N2CCC(c3cc(-c4ccc(Cl)cc4Cl)n[nH]3)CC2)n1 | 25.9 | 30.1
34 | CCOC(=O)C1CCCN(c2ncnc3c2cnn3-c2ccc(OC)cc2)C1 (stereo not given) | 5.82 | 10.3
35 | COC(=O)CCc1sc(Nc2ccc(Br)cc2)nc1-c1ccc(OC)cc1 | 40.9 | > 100
36 | c1ccc(CSc2ccc(-c3ccccn3)nn2)cc1 | 89.4 | 94.2
37 | Cc1cc(C)nc(Sc2ncnc(N)c2[N+](=O)[O-])n1 | 19.3 | 25.5
38 | O=C(NCc1ccccn1)C(=O)Nc1nc(C23CC4CC(CC(C4)C2)C3)cs1 | 6.5 | 14.7
39 | Cc1cc(C)c2cc(C(=O)Nc3ccc(C)c(F)c3)[nH]c2c1 | 1.32 | 1.91
40 | Cc1nn(-c2ccccc2)c2c1C(c1ccc([N+](=O)[O-])cc1)N1C(=N2)C(=O)Nc2ccccc21 (stereo not given) | 55.3 | > 100
41 | Cc1nc2ccc(OC(=O)c3ccccc3)cc2s1 | 88.1 | > 100
42 | C[C@@H]1CN([C@H](C)CO)C(=O)c2cc(NC(=O)Nc3ccc(C(F)(F)F)cc3)ccc2O[C@H]1CN(C)S(=O)(=O)c1cccs1 | 21.7 | 24.1
43 | Cc1ccc(/C=C2\SC(N3CCCC3)=NC2=O)cc1 | 0.74 | 4.62
44 | CC(C)(C)C1CCc2c(sc3nc(SCC(N)=O)nc(N)c23)C1 (stereo not given) | 22.1 | 33.5

Row | Structure (SMILES) | IC50 [µM] | IC90 [µM]
45 | O=C1Nc2ccccc2/C1=N\N=C\C1=C(N2CCOCC2)C(=C\c2ccccc2)/CC1 | 36.5 | > 100
46 | CCOC(=O)c1c(NC(=O)CSc2nc3ccc(OC)cc3[nH]2)sc2c1CC(C)(C)NC2(C)C | 39.7 | 53.7
47 | Cc1ccc(-c2ccnc(=S)[nH]2)cc1 | 55.9 | > 100
48 | O=Nc1c2nc3ccccc3n(O)c-2c2ccccc12 | 12.2 | 13.7
49 | C[Se]C[C@@H](N)C(=O)O | 89.4 | 95.7
50 | CCCCCOc1ccc(NC2=CC(=O)CCC2)cc1 | 77.8 | 99
51 | Cc1ccccc1Cn1cc(NC(=O)c2noc(C(C)C)c2[N+](=O)[O-])cn1 | 5.01 | 8.45
52 | CC1(c2ccc(OC(F)F)cc2)NC(=O)N(CC(=O)c2ccc3c(c2)OCO3)C1=O (stereo not given) | 37.2 | 70.8
53 | CC(C)(C)c1ccc(Cn2c(=N)n(CC(O)c3ccco3)c3ccccc32)cc1 (stereo not given) | 23.3 | 25.6
54 | N=c1n(Cc2ccc(Cl)cc2)c2ccccc2n1CC(O)COc1ccccc1 (stereo not given) | 22.7 | 27.2
55 | CC(C)Cn1c([N+](=O)[O-])nc2c1c(=O)[nH]c(=O)n2C | 9.69 | 14.5
56 | CCCCC(CC)CN=C(N)NC(N)=NCCCCCCN=C(N)NC(N)=NCC(CC)CCCC (stereo not given) | 5.37 | 5.97
57 | O=C(CCl)Nc1cccn2ncnc12 | 3.32 | 7.56
58 | COc1ccc(C=C2C=C(C(C)(C)C)C(=O)C(C(C)(C)C)=C2)cc1OC | 4.94 | 7.13
59 | Cc1ccc(CNc2ccc3c(c2)ncn3C(C)(C)C)cc1 | 19.9 | 28.8
60 | Cn1c(NCC(O)c2ccccc2)nc2c1c(=O)n(Cc1ccc(Cl)c(Cl)c1)c(=O)n2C (stereo not given) | 77.8 | > 100
61 | CCN(CCNCC(O)COc1ccccc1C(C)C)c1cccc(C)c1 (stereo not given) | 22.8 | 26
62 | COc1cc2c(cc1OC)C1(Nc3c-2c(-c2ccccc2)nn3-c2ccccc2)C(=O)Nc2ccccc21 (stereo not given) | 80.9 | > 100
63 | Cc1cc(C)c2c(CN3CCN(Cc4ccccc4)CC3)cc(=O)oc2c1C | 48.1 | 55.2
64 | CN(C)CCCN1c2ccccc2Sc2ccc(Cl)cc21 | 46.6 | 60
65 | c1ccc(-c2nc3c(ccc4ccccc43)[nH]2)nc1 | 31.4 | 68.5
66 | COc1ccccc1N(O)C1CC(=O)N(c2ccc(Br)cc2)C1=O (stereo not given) | 22.9 | 25.9

Row | Structure (SMILES) | IC50 [µM] | IC90 [µM]
67 | COc1cccc(/C=N/Nc2ncnc3scc(-c4ccccc4)c23)c1O | 5.65 | 6.44
68 | CCCCN(C)C(=O)Cc1c(OC)ccc2cc(Br)ccc12 | 24.4 | 33.5
69 | Cc1nnc(-c2ccccc2)c(=O)n1/N=C/c1c(O)ccc2ccccc12 | 22.1 | 24.7
70 | O=C1/C(=C/Nc2ccc3c(c2)OCO3)CCc2ccccc21 | 74.7 | > 100
71 | CO[C@@H]1[C@@H](OC(N)=O)[C@@H](O)C(Oc2ccc3c(O)c(NC(=O)c4ccc(O)c(CC=C(C)C)c4)c(=O)oc3c2C)OC1(C)C (stereo not given in full) | 9.33 | 14.5
72 | N#Cc1c(-c2ccccc2)c(-c2ccccc2)nn(CC(=O)NNC(=O)Nc2ccc(Cl)c(Cl)c2)c1=O | 47.9 | 54.7
73 | Cc1ccc(-c2csc3nc4c5ccccc5c(NCCCN5CCOCC5)nn4c(=O)c23)cc1 | 29 | 39.8
74 | CC(C)COCc1ccc(O)c2ncccc12 | 2.18 | 2.59
75 | Nc1ccc(-c2nc3nc(N)nc(N)c3nc2-c2ccc(N)cc2)cc1 | 48.8 | > 100
76 | C/C(=N\NC(=O)COc1ccc(C)cc1Br)c1cc([N+](=O)[O-])cs1 | 24 | 26.4
77 | COc1ccc(C(=O)C[n+]2ccc3c(c2)nc(-c2cc(OC)c(OC)cc2OC)n3C)cc1 | 11.6 | 13.1
78 | Cc1cc(N2CCN(c3ccc(C(F)(F)F)cc3[N+](=O)[O-])CC2)c2ccccc2n1 | 22.2 | 24.9
79 | CCCCCCCCCCC[N+](C)(C)CC/C=C1/c2ccccc2Sc2ccc(Cl)cc21 | 8.03 | 9.28
80 | Cn1c(CNc2nc(-c3ccccc3)cs2)nnc1SCC(=O)OC1CCCCC1 | 24 | 27.3
81 | CSCCOC(=O)COc1ccc(/C=N/NC(=O)c2c(Cl)cnn2C)cc1 | 19.6 | 37.7
82 | CN1CCN(c2c(F)cc3c(=O)c(C(=O)O)cn4c3c2OCN4C)CC1 | 0.72 | 0.93
83 | O=[N+]([O-])c1cc(-c2nc(-c3ccncc3)no2)cc([N+](=O)[O-])c1 | 10.4 | 20.5
84 | CCn1c(NC(=O)c2nn(C)cc2Br)nc2ccccc21 | 9.5 | 16.8
85 | CCOC(=O)N1CCN(C(=O)CSc2nnc(-c3ccc(Cl)s3)o2)CC1 | 25.2 | 29.9
